Source: patent US6706716B2, “Compounds specific for the human α1d adrenergic receptor and uses thereof” (Synaptic Pharmaceutical Corporation, priority 1998, dated 2004)

How the values were obtained:
α1A adrenoceptor = biological target: T1, α1A adrenoceptor (Rattus norvegicus, UniProt P43140); assay: Isolated tissue functional assay, epididymal vas deferens (phenylephrine induced contraction)
T1 construct: from tissue; host or cells: rat epididymal vas deferens
T1 sequence (P43140 1-466): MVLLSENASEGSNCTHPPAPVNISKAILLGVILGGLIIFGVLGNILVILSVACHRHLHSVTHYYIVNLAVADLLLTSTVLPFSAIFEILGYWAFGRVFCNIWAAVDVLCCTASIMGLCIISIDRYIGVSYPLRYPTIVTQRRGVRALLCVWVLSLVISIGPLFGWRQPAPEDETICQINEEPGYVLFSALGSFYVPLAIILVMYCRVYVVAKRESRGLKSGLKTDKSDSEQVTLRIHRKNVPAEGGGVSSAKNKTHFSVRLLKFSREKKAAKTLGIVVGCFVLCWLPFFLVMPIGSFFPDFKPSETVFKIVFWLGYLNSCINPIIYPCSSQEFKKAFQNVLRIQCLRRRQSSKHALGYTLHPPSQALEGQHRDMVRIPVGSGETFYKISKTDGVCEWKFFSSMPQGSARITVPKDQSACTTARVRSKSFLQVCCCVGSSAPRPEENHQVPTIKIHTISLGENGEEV
Protocol: (§1) The functional in vitro activity of Compound 7 was characterized in several pharmacologically defined α1 adrenoceptor subtype isolated tissue assays (Aboud et al., 1993). (Rat epididymal vas deferens was used to determine α1A functional responses, spleen was used for α1B responses, and thoracic aorta was used for α1D responses.) Experiments were carried out according to the method of Deng et al., 1996, with minor buffer and tissue setup tension modifications. Krebs additionally contained 0.1 μM desipramine and 10 μM corticosterone to block neuronal and extra neuronal uptake, respectively, and 0.3 μM idazoxan to eliminate α2 mediated responses. Aorta and vas deferens strips were set at 0.5 g resting tension, and the splenic preparations were tensioned to 1 g. All preparations were equilibrated for 1 hr before the addition of drugs.
(§2) Additionally, its antagonist potency was determined by its ability to antagonize phenylephrine (PE) induced contraction in each of these preparations. The degree of shift of the PE agonist dose response-curve in the presence of Compound 7 was measured and pKB values were calculated (mean±s.e.m.).

α1D adrenergic receptor = biological target: T2, α1D adrenergic receptor (Rattus norvegicus, UniProt P23944); assay: Isolated tissue functional assay, thoracic aorta (phenylephrine induced contraction)
T2 construct: from tissue; host or cells: rat thoracic aorta strips
T2 sequence (P23944 1-561): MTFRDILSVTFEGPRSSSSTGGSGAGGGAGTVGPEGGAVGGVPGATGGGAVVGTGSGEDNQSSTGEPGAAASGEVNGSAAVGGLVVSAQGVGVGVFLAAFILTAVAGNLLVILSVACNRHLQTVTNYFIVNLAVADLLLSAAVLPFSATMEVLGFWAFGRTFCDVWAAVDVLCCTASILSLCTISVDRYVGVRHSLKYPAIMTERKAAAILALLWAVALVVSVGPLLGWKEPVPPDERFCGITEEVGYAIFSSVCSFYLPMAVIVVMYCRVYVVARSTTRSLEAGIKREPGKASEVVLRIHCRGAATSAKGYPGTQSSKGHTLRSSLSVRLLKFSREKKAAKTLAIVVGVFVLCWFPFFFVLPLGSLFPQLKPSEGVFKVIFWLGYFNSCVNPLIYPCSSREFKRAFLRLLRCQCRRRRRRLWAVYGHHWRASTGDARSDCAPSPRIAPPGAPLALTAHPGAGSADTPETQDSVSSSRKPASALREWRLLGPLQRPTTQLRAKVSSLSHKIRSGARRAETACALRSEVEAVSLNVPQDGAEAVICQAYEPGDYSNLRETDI
Protocol: as §1, §2

[1] = biological target: T3, human 5-HT1Dα (5-HT1D) receptor (Homo sapiens, UniProt P28221); assay: Competition binding ([3H]serotonin) at cloned human 5-HT1Dα (5-HT1D) receptor; settings: read-out: binding affinity (pKi) 5-HT1Dα (5-HT1D) (converted)
T3 construct: expressed in transfected cells; host or cells: LM(tk-) clonal cell line Ltk-8-30-84 (ATCC CRL 10421)
T3 sequence (P28221 whole entry): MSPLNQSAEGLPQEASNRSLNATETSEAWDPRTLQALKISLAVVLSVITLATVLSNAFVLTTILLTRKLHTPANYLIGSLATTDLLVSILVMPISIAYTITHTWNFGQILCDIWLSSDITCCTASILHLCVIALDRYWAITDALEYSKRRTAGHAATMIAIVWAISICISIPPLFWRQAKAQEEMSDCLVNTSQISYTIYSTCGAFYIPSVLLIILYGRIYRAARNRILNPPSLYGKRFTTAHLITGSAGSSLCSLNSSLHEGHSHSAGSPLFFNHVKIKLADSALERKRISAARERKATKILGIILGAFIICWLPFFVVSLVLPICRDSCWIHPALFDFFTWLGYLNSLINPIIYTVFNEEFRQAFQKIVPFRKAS
Protocol: 5-HT1Dα (5-HT1D) and 5-HT1Dβ (5-HT1B) receptors: The cell lysates of the LM(tk-) clonal cell line stably transfected with the genes encoding each of these 5-HT receptor subtypes were prepared as described above. The cell line for the 5-HT1Dα (5-HT1D) receptor, designated as Ltk-8-30-84, was deposited on Apr. 17, 1990, and accorded ATCC Accession No. CRL 10421. The cell line for the 5-HT1Dβ (5-HT1B) receptor, designated as Ltk-11, was deposited on Apr. 17, 1990, and accorded ATCC Accession No. CRL 10422. These preparations were suspended in 50 mM Tris-HCl buffer (pH 7.4 at 37° C.) containing 10 mM MgCl2, 0.2 mM EDTA, 10 μM pargyline, and 0.1% ascorbate. […] Nonspecific binding was determined in the presence of 10 μM serotonin. The bound radioligand was separated by filtration through GF/B filters using a cell harvester.

α1B adrenoceptor = biological target: T4, α1B adrenoceptor (Rattus norvegicus, UniProt P15823); assay: Isolated tissue functional assay, spleen (phenylephrine induced contraction)
T4 construct: from tissue; host or cells: rat splenic preparations
T4 sequence (P15823 1-515): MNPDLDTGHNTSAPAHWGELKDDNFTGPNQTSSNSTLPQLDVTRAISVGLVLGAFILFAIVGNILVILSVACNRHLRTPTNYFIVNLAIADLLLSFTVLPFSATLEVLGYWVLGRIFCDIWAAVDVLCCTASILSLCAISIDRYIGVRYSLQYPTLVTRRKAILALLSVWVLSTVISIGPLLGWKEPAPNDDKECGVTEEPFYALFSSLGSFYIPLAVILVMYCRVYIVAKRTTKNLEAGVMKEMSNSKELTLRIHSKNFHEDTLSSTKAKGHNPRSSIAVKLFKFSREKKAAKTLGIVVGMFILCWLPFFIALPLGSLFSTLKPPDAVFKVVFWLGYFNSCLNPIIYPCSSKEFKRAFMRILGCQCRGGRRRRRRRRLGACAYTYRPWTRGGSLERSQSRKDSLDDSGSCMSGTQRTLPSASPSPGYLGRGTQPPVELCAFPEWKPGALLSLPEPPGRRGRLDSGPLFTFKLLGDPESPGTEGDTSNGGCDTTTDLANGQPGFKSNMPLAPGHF
Protocol: as §1, §2

[2] = tested on: conscious, normotensive rats; assay: Mean arterial blood pressure in conscious, normotensive rats; assay type: in vivo, rat; settings: 4.0 mg/kg i.v., 0-60 min
Protocol: Rats were anesthetized and a PE50 chronic indwelling cannula was placed in the abdominal aorta for measurement of blood pressure. On the following day, 5 rats each were administered vehicle (1% DMSO) or Compound 7 (4.0 mg/kg in 1% DMSO, i.v.) and mean blood pressure measurements were recorded at 0, 5, 30, and 60 minutes thereafter.

Question: With O=C1CC2(CCCC2)CC(=O)N1CCN1CCN(c2cc(F)c(F)cc2F)CC1 [Compound 7, 8-{2-[4-(2,4,5-Trifluorophenyl)piperazin-1-yl]ethyl}-8-azaspiro[4.5]decane-7,9-dione] as the molecule, how does the agonist activity (α1A adrenoceptor; concentrations up to 10 μM, rat vas deferens (α1A model)) read?
Answer: The agonist activity was “failed to produce agonist activity”.

Question: And the Kb (α1A adrenoceptor; rat epididymal vas deferens (α1A), mean±s.e.m., read-out: pKB (antagonism of phenylephrine induced contraction) (converted))?
Answer: Its Kb is 6310 nM.

Question: And the “fold less potent than in the aorta” value (α1A adrenoceptor; vas deferens versus aorta)?
Answer: The value was “approximately 2000 fold”.

Question: And the agonist activity (α1D adrenergic receptor; concentrations up to 10 μM, rat thoracic aorta (α1D model))?
Answer: Its agonist activity is “failed to produce agonist activity”.

Question: And the Kb (α1D adrenergic receptor; rat thoracic aorta (α1D), mean±s.e.m., read-out: pKB (antagonism of phenylephrine induced contraction) (converted))?
Answer: The Kb was 3.16 nM.

Question: What about the Ki [1] of the same molecule?
Answer: The Ki was 794 nM.

Question: And the agonist activity (α1B adrenoceptor; concentrations up to 10 μM, rat spleen (α1B model))?
Answer: The agonist activity was “failed to produce agonist activity”.

Question: What about the Kb (α1B adrenoceptor; rat spleen (α1B), mean±s.e.m., read-out: pKB (antagonism of phenylephrine induced contraction) (converted)) of the same molecule?
Answer: Its Kb is 200 nM.

Question: And the “fold less effective than in the aorta” value (α1B adrenoceptor; spleen versus aorta)?
Answer: Its value is “approximately 60 fold”.

Question: And the “effect on mean blood pressure” value [2]?
Answer: Its value is “no reduction in blood pressure”.
